Twelve compounds from patent US9182397B2, “Immunoassay for detecting antibiotics” (DSM IP ASSETS B.V., priority 2011, dated 2015) can be followed below.

The subject of the assay is Penicillin binding protein purified from Bacillus stearothermophilus. The experiment in a line: Sensitivity of the test device for different antibiotics (Example 23). The arrangement: key: 0: no intensity; 1: low intensity; 2: medium intensity; 3: high intensity. Here is the method: A nitrocellulose HF90 membrane (Millipore; length 25 mm) was used as a detection region. The membrane was glued to a polystyrene laminated card (thickness 0.254 mm) 8 mm from the proximal end of the card. Next, the detection zone and control zone were applied onto the nitrocellulose membrane. The detection zone was applied by dispensing 1 mg/ml of a 7ACA-spacer-BSA conjugate in 20 mM KPO4-buffer (pH 7.5) with a Biodot Dispense workstation XYZ 3050 with frontline at 0.2 μl/cm. The control zone was applied by dispensing 0.15 mg/ml of an anti-IgY antibody in 20 mM KPO4-buffer (pH 7.5) comprising 0.675 mg/ml BSA, 5% w/v saccharose and 20 mM NaCl with a Biodot Dispense workstation XYZ 3050 with frontline at 0.8 μl/cm. After drying of the zones, the nitrocellulose membrane was blocked by spraying a solution comprising 10 mM Tris buffer (pH 8) comprising 2% w/v BSA and 0.05% w/v Tween-20 using a Biodot Dispense workstation XYZ 3050 with airjet 3×. The solution was sprayed onto the membrane at a distance of 2 mm below the detection zone. Thereafter, the sample receiving region (VF2 membrane from Millipore; length 1 cm) was glued at the proximal end of the card overlapping 2 mm with the nitrocellulose membrane. The absorbing region (10038 membrane from Millipore; length 20 mm) was glued at the distal end of the card with an overlap of 2 mm on the nitrocellulose membrane. The obtained cards were dried at 37° C. in a dry atmosphere (0% relative humidity). The card was cut in strips of 5.2 mm width and kept at a dry atmosphere (0% relative humidity).
Streptavidin-coated gold particles were synthesized by reacting colloidal gold (diameter 40 nm; 1 OD/ml) with 10 μg/ml streptavidin. Next, the obtained solution was concentrated by tangential flow filtration, washed and stored in a Tris buffer (pH 8) including NaCN. Penicillin binding protein purified from Bacillus stearothermophilus was biotinylated (1:4) with D-biotinyl-epsilon-aminocaproic acid-N-hydroxysuccinimide ester. Next, the penicillin binding protein-gold conjugate was synthesized by reacting 1.5 μg biotinylated penicillin binding protein with 1 OD streptavidin-coated gold particles for 1 hour, followed by centrifugation at 10,000×g for 5 minutes and resuspension of the obtained pellet in 45 mM bicarbonate buffer comprising 0.1% w/v Triton X-100 (pH 9.6).
Thereafter, 140-200 mOD of the penicillin binding protein-gold conjugate and 5-20 mOD of the IgY-gold conjugate was solubilized in 100 μl buffer (80 mM Tris buffer comprising 0.01% w/v Triton-X-100, 0.4% w/v BSA, 5% v/v glycerin and 2% w/v saccharose (pH 8.5)) and 0.75 μl of the solution was dispensed per tube and dried for 12 hours at 40° C. The obtained tubes were sealed.
150 μl of spiked milk was added per tube containing the dried conjugates. The concentration of penicillin G in the added milk varied from 0 to 4 ng/g (tube 1: 0 ng/g; […]; tube 2: 2 ng/g; tube 3: 3 ng/g; and tube 4: 4 ng/g). The obtained liquid composition was incubated for 2 minutes at 64° C. in an incubator. A test device was put into the tube and incubated for 3 minutes at 64° C. in the incubator. The result was read by eye.
The test was done essentially as described in Example 3, with the proviso that different antibiotics at different concentrations were tested.

`CC1=C(C(=O)O)N2C(=O)[C@@H](NC(=O)[C@H](N)c3ccccc3)[C@H]2SC1` [Cefalexin]: the “Intensity of detection zone” value is 2 (Cefalexin 34.0 ng/g in milk); 1 (Cefalexin 43.0 ng/g in milk); 0 (Cefalexin 52.0 ng/g in milk); 0 (Cefalexin 61.0 ng/g in milk); 0 (Cefalexin 70.0 ng/g in milk).

For `Cc1onc(-c2ccccc2)c1C(=O)N[C@@H]1C(=O)N2[C@@H]1SC(C)(C)[C@@H]2C(=O)O` [Oxacillin], the “Intensity of detection zone” value is reported as 2 (Oxacillin 27.0 ng/g in milk); 2 (Oxacillin 34.8 ng/g in milk); 1 (Oxacillin 42.6 ng/g in milk); 0 (Oxacillin 50.4 ng/g in milk); 0 (Oxacillin 58.2 ng/g in milk).

Regarding `CCOc1ccc2ccccc2c1C(=O)N[C@@H]1C(=O)N2[C@@H]1SC(C)(C)[C@@H]2C(=O)O` [Nafcillin], the “Intensity of detection zone” value runs as follows: (Nafcillin 40.0 ng/g in milk) 3; (Nafcillin 50.5 ng/g in milk) 2; (Nafcillin 61.0 ng/g in milk) 1; (Nafcillin 71.5 ng/g in milk) 0; (Nafcillin 82.0 ng/g in milk) 0.

As for `NC(=O)c1cc[n+](CC2=C(C(=O)[O-])N3C(=O)[C@@H](NC(=O)Cc4cccs4)[C@H]3SC2)cc1` [Cefalonium], the “Intensity of detection zone” value was 2 (Cefalonium 3.2 ng/g in milk); 1 (Cefalonium 4.0 ng/g in milk); 0 (Cefalonium 4.8 ng/g in milk); 0 (Cefalonium 5.6 ng/g in milk); 0 (Cefalonium 6.4 ng/g in milk).

Take `CC1(C)S[C@@H]2[C@H](NC(=O)[C@H](N)c3ccccc3)C(=O)N2[C@H]1C(=O)O` [Ampicillin]: the “Intensity of detection zone” value is, setting by setting: (Ampicillin 5.3 ng/g in milk) 2; (Ampicillin 6.9 ng/g in milk) 1; (Ampicillin 8.5 ng/g in milk) 0; (Ampicillin 10.1 ng/g in milk) 0; (Ampicillin 11.7 ng/g in milk) 0.

On to `CO/N=C(\C(=O)N[C@@H]1C(=O)N2C(C(=O)O)=C(CSC(=O)c3ccco3)CS[C@H]12)c1csc(N)n1` [Ceftiofur], for which the “Intensity of detection zone” value by setting is: (Ceftiofur 4.0 ng/g in milk) 2; (Ceftiofur 5.1 ng/g in milk) 1; (Ceftiofur 6.2 ng/g in milk) 0; (Ceftiofur 7.3 ng/g in milk) 0; (Ceftiofur 8.4 ng/g in milk) 0.

For `Cc1onc(-c2ccccc2Cl)c1C(=O)N[C@@H]1C(=O)N2[C@@H]1SC(C)(C)[C@@H]2C(=O)O` [Cloxacillin], the “Intensity of detection zone” value reads like this: (Cloxacillin 32.5 ng/g in milk) 1; (Cloxacillin 43.2 ng/g in milk) 0; (Cloxacillin 53.9 ng/g in milk) 0; (Cloxacillin 64.6 ng/g in milk) 0; (Cloxacillin 75.3 ng/g in milk) 0.

Turning to `CO/N=C(\C(=O)N[C@@H]1C(=O)N2C(C(=O)[O-])=C(C[n+]3cccc4c3CCCC4)CS[C@H]12)c1csc(N)n1` [Cefquinome], the “Intensity of detection zone” value is listed as 2 (Cefquinome 12.5 ng/g in milk); 1 (Cefquinome 15.8 ng/g in milk); 0 (Cefquinome 19.1 ng/g in milk); 0 (Cefquinome 22.4 ng/g in milk); 0 (Cefquinome 25.7 ng/g in milk).

Turning to `CC1(C)S[C@@H]2[C@H](NC(=O)[C@H](N)c3ccc(O)cc3)C(=O)N2[C@H]1C(=O)O` [Amoxicillin], the “Intensity of detection zone” value is, setting by setting: (Amoxicillin 3.3 ng/g in milk) 2; (Amoxicillin 4.3 ng/g in milk) 1; (Amoxicillin 5.3 ng/g in milk) 1; (Amoxicillin 6.3 ng/g in milk) 0; (Amoxicillin 7.3 ng/g in milk) 0.

In the case of `Cc1onc(-c2c(Cl)cccc2Cl)c1C(=O)N[C@@H]1C(=O)N2[C@@H]1SC(C)(C)[C@@H]2C(=O)O` [Dicloxacillin], the “Intensity of detection zone” value is 3 (Dicloxacillin 15.0 ng/g in milk); 2 (Dicloxacillin 20.0 ng/g in milk); 2 (Dicloxacillin 25.0 ng/g in milk); 1 (Dicloxacillin 30.0 ng/g in milk); 0 (Dicloxacillin 35.0 ng/g in milk).

Take `Cc1nnc(SCC2=C(C(=O)O)N3C(=O)[C@@H](NC(=O)Cn4cnnn4)[C@H]3SC2)s1` [Cefazolin]: the “Intensity of detection zone” value runs as follows: (Cefazolin 10.0 ng/g in milk) 2; (Cefazolin 12.5 ng/g in milk) 1; (Cefazolin 15.0 ng/g in milk) 0; (Cefazolin 17.5 ng/g in milk) 0; (Cefazolin 20.0 ng/g in milk) 0.

On to `CCN1CCN(C(=O)N[C@@H](C(=O)N[C@@H]2C(=O)N3C(C(=O)O)=C(CSc4nnnn4C)CS[C@H]23)c2ccc(O)cc2)C(=O)C1=O` [Cefoperazone], for which the “Intensity of detection zone” value runs as follows: (Cefoperazone 4.0 ng/g in milk) 2; (Cefoperazone 4.9 ng/g in milk) 2; (Cefoperazone 5.8 ng/g in milk) 1; (Cefoperazone 6.7 ng/g in milk) 1; (Cefoperazone 7.6 ng/g in milk) 0.
